Calls of active or inactive are those of the source.
Tests used:
[1] = biological target: Beta-2 adrenergic receptor (Homo sapiens, UniProt P07550); assay: ADRB2 activation measured by internalization – cell-based, FAP fluorogen, flow cytometry, cherry pick 1, dose response (AID 588763); type: functional
[2] = biological target: Large T antigen (Simian virus 40, UniProt P03070); type: functional, Betapolyomavirus macacae;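 further: Confirmatory-stage PubChem screen for compounds that inhibit SV40 T antigen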
[3] = biological target: CAAX prenyl protease 1 (Saccharomyces cerevisiae S288c, UniProt P47154); assay: yeast CAAX protease Ste24 inhibition – biochemical, S. cerevisiae, plate reader, cherry-pick, dose response (AID 488815)
[4] = biological target: Dual specificity tyrosine-phosphorylation-regulated kinase 1A (Rattus norvegicus, UniProt Q63470); type: biochemical, Homo sapiens
[5] = biological target: T1, Apoptotic protease-activating factor 1 (Homo sapiens, UniProt O14727); type: functional
T1 sequence (O14727 whole entry): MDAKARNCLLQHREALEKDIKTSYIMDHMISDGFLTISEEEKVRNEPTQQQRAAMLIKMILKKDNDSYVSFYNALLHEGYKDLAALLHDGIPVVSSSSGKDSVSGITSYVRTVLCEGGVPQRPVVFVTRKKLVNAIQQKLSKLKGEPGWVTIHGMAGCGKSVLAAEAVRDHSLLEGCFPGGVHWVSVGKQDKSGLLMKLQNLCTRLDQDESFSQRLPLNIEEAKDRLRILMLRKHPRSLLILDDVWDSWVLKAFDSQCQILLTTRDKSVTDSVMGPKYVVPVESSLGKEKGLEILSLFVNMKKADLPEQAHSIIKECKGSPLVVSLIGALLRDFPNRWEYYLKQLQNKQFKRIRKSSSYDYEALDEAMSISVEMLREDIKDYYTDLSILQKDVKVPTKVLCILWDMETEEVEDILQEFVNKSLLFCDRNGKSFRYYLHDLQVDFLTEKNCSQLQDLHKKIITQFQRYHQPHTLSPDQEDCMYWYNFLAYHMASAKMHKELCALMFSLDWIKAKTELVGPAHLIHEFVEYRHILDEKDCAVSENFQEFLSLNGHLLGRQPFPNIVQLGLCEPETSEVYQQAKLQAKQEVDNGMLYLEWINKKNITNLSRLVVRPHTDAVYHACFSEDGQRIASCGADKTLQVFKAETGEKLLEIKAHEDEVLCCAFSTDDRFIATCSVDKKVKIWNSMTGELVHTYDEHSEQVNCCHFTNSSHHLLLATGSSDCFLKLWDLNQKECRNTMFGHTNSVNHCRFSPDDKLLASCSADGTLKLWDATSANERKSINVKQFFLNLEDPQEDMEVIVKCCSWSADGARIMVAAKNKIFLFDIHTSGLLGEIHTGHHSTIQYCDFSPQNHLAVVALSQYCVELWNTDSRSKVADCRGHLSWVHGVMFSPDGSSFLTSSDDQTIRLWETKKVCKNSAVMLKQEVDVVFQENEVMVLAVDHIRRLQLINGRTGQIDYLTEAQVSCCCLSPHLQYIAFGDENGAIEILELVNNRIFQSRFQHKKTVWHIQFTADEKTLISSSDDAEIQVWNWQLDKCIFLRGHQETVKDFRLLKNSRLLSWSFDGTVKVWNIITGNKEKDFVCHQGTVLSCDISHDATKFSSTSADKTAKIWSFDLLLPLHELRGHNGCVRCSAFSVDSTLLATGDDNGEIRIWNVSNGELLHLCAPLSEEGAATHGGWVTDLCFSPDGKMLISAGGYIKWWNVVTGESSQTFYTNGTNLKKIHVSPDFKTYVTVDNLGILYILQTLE

[6] = system: Streptococcus; assay: GAS UMAA2166 growth inhibition – luminescence, BacTiterGlo, counter-screen for streptokinase expression inhibitor project, dose response (AID 1915); type: functional, organism-based;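 further: potency for reduction of bacterial viability or growth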
[7] = system: Streptococcus sp. 'group A'; assay: Streptococcus pyogenes SK(-)GAS viability under kanamycin – luminescence, BacTiterGlo, confirmation, counter-screen for streptokinase expression inhibitor project, dose response (AID 1900); type: functional, organism-based
[8] = biological target: T2, Insulin-degrading enzyme (Homo sapiens, UniProt P14735); assay: recombinant IDE activation, cell-free – biochemical, fluorescence polarization, counter-screen for IDE activator project, dose response (AID 588681)
T2 sequence (P14735 whole entry): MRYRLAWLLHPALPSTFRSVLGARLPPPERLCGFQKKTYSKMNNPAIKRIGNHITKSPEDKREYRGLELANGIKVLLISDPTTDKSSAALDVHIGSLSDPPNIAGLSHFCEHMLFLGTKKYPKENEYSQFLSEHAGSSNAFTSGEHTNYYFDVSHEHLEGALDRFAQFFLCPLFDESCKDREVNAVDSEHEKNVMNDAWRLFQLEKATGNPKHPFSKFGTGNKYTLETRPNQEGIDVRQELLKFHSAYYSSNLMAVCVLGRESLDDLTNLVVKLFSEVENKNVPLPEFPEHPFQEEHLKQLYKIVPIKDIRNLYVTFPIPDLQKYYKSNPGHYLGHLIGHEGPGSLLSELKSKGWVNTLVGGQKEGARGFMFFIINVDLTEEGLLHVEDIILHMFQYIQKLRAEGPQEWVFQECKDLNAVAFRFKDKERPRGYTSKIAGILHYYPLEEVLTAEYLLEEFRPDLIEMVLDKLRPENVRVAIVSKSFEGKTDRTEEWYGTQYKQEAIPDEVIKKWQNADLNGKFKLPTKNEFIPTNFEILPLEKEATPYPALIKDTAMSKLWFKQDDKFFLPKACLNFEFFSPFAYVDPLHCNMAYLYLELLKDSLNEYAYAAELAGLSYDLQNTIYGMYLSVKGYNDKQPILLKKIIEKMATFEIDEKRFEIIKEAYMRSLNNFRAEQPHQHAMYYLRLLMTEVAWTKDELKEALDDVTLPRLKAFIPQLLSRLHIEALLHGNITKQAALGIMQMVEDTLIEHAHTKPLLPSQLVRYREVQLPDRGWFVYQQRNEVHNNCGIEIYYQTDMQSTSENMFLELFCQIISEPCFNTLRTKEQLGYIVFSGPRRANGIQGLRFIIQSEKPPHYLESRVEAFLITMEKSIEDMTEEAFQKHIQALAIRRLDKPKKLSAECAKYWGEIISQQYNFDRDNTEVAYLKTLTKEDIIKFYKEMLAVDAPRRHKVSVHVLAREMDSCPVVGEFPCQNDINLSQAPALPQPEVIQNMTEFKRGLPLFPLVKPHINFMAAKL

[9] = biological target: Heat shock protein HSP 90-alpha (Homo sapiens, UniProt P07900); type: functional, organism-based
[10] = system: HEK293; assay: optical interference in Abeta FP readout, dose response, artefact control for IDE activator project, biochemical, fluorescence polarization (AID 588442); type: functional, cell-based; conditions: Homo sapiens
[11] = biological target: T2, Insulin-degrading enzyme; assay: cellular IDE activation of Abeta substrate cleavage – fluorescence polarization, HEK cells, dose response (AID 588439); type: functional, cell-based
[12] = system: HEK293; assay: membrane integrity loss in HEK cells – cell-based, fluorescence, cytotoxicity control for IDE activator project, dose response (AID 588440); type: functional; conditions: Homo sapiens;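 further: cytotoxicity by LDH release measuring loss of membrane integrity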
[13] = biological target: T3, Streptokinase A (Streptococcus pyogenes serotype M1, UniProt P10520); assay: viability-normalized secreted streptokinase activity reduction – plasminogen activation absorbance, OD405, dose response (AID 1914); type: functional, Streptococcus pyogenes M1 GAS;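 further: secreted streptokinase activity via plasminogen activation per viability signal from cell pellet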
T3 sequence (P10520 whole entry): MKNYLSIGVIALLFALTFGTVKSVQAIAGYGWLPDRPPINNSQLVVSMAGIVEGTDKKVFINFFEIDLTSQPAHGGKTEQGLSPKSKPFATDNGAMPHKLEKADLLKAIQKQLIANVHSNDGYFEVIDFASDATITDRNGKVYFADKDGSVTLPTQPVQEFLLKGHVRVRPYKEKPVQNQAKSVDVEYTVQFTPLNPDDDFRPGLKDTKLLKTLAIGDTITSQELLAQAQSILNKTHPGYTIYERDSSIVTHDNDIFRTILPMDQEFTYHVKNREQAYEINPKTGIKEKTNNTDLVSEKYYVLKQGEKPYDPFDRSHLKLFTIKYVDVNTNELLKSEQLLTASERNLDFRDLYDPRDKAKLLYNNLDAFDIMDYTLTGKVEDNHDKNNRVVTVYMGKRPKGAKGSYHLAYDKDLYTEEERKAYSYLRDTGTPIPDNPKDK

Large T antigen, sequence (P03070 whole entry): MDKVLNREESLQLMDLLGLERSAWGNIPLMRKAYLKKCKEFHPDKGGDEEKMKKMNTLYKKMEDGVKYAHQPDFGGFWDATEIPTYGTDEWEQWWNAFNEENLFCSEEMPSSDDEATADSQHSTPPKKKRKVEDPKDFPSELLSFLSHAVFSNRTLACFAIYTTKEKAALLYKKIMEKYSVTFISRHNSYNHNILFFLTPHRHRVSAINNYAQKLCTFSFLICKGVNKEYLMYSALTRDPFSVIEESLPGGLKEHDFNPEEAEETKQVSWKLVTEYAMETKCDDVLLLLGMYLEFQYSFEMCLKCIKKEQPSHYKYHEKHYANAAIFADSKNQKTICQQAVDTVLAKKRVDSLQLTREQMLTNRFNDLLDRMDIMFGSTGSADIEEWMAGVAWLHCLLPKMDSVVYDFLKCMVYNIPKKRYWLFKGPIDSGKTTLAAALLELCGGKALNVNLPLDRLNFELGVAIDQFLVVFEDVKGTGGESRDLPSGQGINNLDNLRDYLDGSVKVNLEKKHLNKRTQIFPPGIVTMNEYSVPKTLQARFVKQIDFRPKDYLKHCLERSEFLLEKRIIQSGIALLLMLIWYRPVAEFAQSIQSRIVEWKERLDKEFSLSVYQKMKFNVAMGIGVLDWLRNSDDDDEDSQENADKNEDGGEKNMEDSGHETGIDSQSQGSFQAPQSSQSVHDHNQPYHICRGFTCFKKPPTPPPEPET
Beta-2 adrenergic receptor, sequence (P07550 whole entry): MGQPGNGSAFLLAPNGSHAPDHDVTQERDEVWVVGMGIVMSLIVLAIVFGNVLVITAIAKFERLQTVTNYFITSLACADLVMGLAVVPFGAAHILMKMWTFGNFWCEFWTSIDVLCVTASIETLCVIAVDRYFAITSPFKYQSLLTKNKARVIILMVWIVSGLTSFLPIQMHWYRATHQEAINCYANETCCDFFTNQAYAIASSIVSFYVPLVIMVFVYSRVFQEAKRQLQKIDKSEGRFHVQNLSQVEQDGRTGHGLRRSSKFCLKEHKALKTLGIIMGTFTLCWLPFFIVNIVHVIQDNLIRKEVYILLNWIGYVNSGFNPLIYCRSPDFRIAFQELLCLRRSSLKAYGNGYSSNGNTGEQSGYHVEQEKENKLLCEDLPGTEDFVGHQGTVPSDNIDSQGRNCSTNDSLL
CAAX prenyl protease 1, sequence (P47154 whole entry): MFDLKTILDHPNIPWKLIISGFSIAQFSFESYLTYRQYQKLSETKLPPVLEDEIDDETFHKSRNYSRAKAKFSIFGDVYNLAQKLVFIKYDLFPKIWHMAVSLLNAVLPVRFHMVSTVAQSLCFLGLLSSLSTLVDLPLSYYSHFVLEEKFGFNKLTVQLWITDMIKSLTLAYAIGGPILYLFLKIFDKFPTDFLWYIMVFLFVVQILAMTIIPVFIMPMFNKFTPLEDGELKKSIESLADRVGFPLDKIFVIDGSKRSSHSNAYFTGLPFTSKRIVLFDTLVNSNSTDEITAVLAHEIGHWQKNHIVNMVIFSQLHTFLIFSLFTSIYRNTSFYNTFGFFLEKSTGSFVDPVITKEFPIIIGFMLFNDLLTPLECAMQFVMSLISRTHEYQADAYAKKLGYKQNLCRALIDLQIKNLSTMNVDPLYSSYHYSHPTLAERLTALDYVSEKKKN

`CC(=O)c1cccc(S(=O)(=O)N2CCCC(c3nc(-c4ccc(C)o4)no3)C2)c1` (stereo not drawn) was tested, and the EC50 [1] was 0.143 µM (active) and the IC50 [2] was 36.4 µM (active).

`COc1ccc2c3c([nH]c2c1)C(C)=NCC3` [HARMALINE] was tested, and the AC50 [3] was 2.77 µM (active) and the AC50 [4] was 1.24 µM (active).

In the case of `CCC(CN(C)C)Oc1cc(NCc2ccccc2)c2ncn(C(C)C)c2c1` (stereo not drawn), the IC50 [5] is reported as 7.98 µM (active).

In the case of `Oc1cc(OCc2ccccc2)ccc1-c1[nH]ncc1-c1ccccc1`, the EC50 [6] is reported as 10.5 µM (active), the EC50 [7] is reported as 2.88 µM (active) and the EC50 [8] is reported as > 54.7 µM (inactive). For the same compound, the AC50 [9] was 9.12 µM (active), the EC50 [10] was > 55.9 µM (inactive) and the EC50 [11] was > 54.7 µM (inactive). For the same compound, the IC50 [12] was 16.9 µM (inactive) and the EC50 [13] was > 150 µM (not active).

Source: ChEMBL document CHEMBL1201862, “PubChem BioAssay data set” (2004)
